Key:
[1] = Solubility of amantadine HCl in water; format: physicochemical; settings: 160 mg, 240 mg and 320 mg of amantadine HCl
[2] = tested on: plasma proteins; settings: concentration range of 0.1 to 2.0 μg/mL; cited from earlier work
[3] = cited from earlier work
[4] = cited from earlier work; remark: listed apart in the source

NC12CC3CC(CC(C3)C1)C2 [Amantadine, amantadine]
Solubility in water [1]: soluble in 250 mL water
bound to plasma proteins [2]: 67%
elimination half-life change in renal insufficiency ([3]; creatinine clearance less than 40 mL/min/1.73 m^2): increases two to three fold or greater
elimination half-life ([3]; patients on chronic maintenance hemodialysis): averages eight days
volume of distribution ([4]; after intravenous administration): 3 to 8 L/kg
reduction of renal clearance of amantadine ([4]; coadministration of quinine or quinidine): about 30%
administered dose excreted unchanged in urine ([4]; in vivo): approximately 85%
metabolism as share of the total clearance ([4]; in vivo): 5-15%
